Experiments:
S4/S4 callus = assay: Callus growth test with chlorsulfuron and structural analogues; assay type: cell-based, Nicotiana tabacum; conditions: 10 ppb compound, 2 weeks in the dark
Experimental: (§1) In these growth tests, petri dishes containing C1 agar medium and 10 ppb of the sulfonamide herbicide chlorsulfuron and Compounds A through E were prepared. A sterile filter paper disc was placed in the center of each plate, and inoculated with 250 mg of callus tissue homozygous for the S4 mutation, or callus tissue derived from the haploid parent H1. The resulting cultures were incubated at 25° in the dark for 2 weeks. At the conclusion of the incubation period, filter discs containing callus cells were removed from culture dishes, placed on a Buchner funnel, and gentle suction applied to remove excess water. The resulting callus mass was then carefully scraped from the filter disc and weighed. Four replicates were included in each experiment.

H1 (parent) callus = assay: as above; assay type: cell-based, Nicotiana tabacum; conditions: 10 ppb compound, 2 weeks in the dark
Experimental: as §1

[1] = system: pea seedlings and root cultures; conditions: medium supplementation; cited from earlier work
[2] = system: acetolactate synthase (ALS), Isolate 24 (S4/+) extract; assay: ALS activity assay in cell extracts; assay type: biochemical, Nicotiana tabacum
Experimental: (§2) Cell suspension cultures of normal (H1) and homozygous mutant (Isolate 16) cell lines were washed in C1 liquid medium. After washing, cells were extracted in a 100 mM potassium phosphate buffer (pH 7.5) containing 0.5 mM MgCl2, 1 mM sodium pyruvate, 0.5 mM thiamine pyrophosphate, 10 micromolar flavine-adenine dinucleotide (FAD) and 10 percent (by volume) glycerol. Polyclar AT (BDH Chemicals Ltd) was added to a final concentration of 250 mg per gram fresh weight of tissue. After centrifugation at 27,000xg for 15 minutes at 4°, an equal volume of a saturated solution of amminium sulfate was added to the supernatant fraction. The resultant precipitate (representing a 0 to 50 percent ammonium sulfate fraction) was redissolved in 100 mM potassium phosphate buffer (pH 7.5) containing 0.5 mM MgCl2, 1 mM sodium pyruvate, and salts were removed by passage through a Sephadex G-25 (Pharmacia PD-10) column.
(§3) ALS activity was assayed in a total volume of 500 microliters containing 100 microliters of the column eluate, 65 mM potassium phosphate buffer (pH 7.5) containing 10 mM MgCl2, 40 mM sodium pyruvate, 250 micromolar thiamine pyrophosphate, 23 micromolar FAD, and 1, 5, 10, 50, 100, 500 or 1000 ppb chlorsulfuron or sulfometuron-methyl. After incubation at 30° for 90 minutes, 250 microliters of 6N H2 SO4 was added to each assay tube, and the tubes were incubated at 55° for 10 minutes to terminate the enzymatic reaction and achieve complete conversion of acetolactate to acetoin. Acetoin content was then measured by a modification of the procedure described by Westerfield, J. Biol. Chem. 161:495 (1945). To each tube was added sequentially 100 microliters 50 percent NaOH, 150 microliters 0.5 percent creatine, and 150 microliters 5 percent alpha-napthol (in 2.5N NaOH). Color development was accelerated by incubation at 55° for 10 minutes. Tubes were then centrifuged, and the optical density was read at 530 nm. Background optical densities, which were subtracted from the optical density values of the reactions, were determined for each extract from parallel assays to which the enzyme extract was added after the addition of 6N H2 SO4. Protein concentrations were measured with Bio-Rad Protein Assay reagent with bovine serum albumin as a standard. Data points and specific activities, which are set forth below and in FIG. 2, represent the average values of at least three independent determinations. ALS activities are presented in FIG. 2 as percent activity in the absence of herbicide.
(§4) Responses to chlorsulfuron were determined for ALS activities in extracts of cells suspension cultures derived from nine individuals that differed with resepct to the S4 mutation. As described above, these individuals were produced by self-fertilization of an S4/+ heterozygote, and their genotypes were established by means of progeny analysis. Callus and plant phenotypes were determined by growth responses of cell cultures and seedlings, respectively, on herbicide-supplemented medium. […] In contrast, all individuals homozygous for the S4 mutation contained a highly resistant form of the enzyme. […] The correlation between both callus and plant phenotype and the response of ALS activity in vitro to the herbicide is both absolute and quantitative.

[3] = system: acetolactate synthase (ALS), Isolate 30 (S4/S4) extract; assay: ALS activity assay in cell extracts; assay type: biochemical, Nicotiana tabacum
Experimental: as §2, §3, §4

[4] = system: acetolactate synthase (ALS), Isolate 9 (S4/+) extract; assay: ALS activity assay in cell extracts; assay type: biochemical, Nicotiana tabacum
Experimental: as §2, §3, §4

[5] = biological target: T1, acetolactate synthase (ALS), Isolate 7 (+/+) extract (Nicotiana tabacum, UniProt P09114); assay: ALS activity assay in cell extracts; assay type: biochemical; conditions: read-out: Uninhibited activity (%) in the Presence of Chlorsulfuron
T1 construct: ALS activity was then assayed in extracts prepared from these cell suspension cultures; endogenous in cells; host or cells: N. tabacum cv; Xanthi cell suspension cultures (H1 parental haploid line; +/+ segregants), 0-50% ammonium sulfate fraction of the extract
T1 sequence (P09114 92-664): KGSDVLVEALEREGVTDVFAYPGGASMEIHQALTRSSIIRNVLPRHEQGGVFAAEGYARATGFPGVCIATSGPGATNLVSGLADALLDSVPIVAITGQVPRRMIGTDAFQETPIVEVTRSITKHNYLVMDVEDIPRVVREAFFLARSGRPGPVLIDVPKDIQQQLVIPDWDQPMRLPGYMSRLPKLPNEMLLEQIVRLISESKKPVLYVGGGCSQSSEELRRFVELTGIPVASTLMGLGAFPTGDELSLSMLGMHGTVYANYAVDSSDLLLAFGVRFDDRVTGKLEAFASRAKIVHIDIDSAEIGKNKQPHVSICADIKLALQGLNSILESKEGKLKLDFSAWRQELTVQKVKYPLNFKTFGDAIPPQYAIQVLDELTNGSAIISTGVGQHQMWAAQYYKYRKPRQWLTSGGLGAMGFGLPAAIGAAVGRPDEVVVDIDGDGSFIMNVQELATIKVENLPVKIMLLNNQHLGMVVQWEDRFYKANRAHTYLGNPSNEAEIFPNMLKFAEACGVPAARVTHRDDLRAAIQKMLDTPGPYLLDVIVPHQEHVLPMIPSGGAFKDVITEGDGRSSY
Experimental: as §2
ALS activity was assayed in a total volume of 500 microliters containing 100 microliters of the column eluate, 65 mM potassium phosphate buffer (pH 7.5) containing 10 mM MgCl2, 40 mM sodium pyruvate, 250 micromolar thiamine pyrophosphate, 23 micromolar FAD, and 1, 5, 10, 50, 100, 500 or 1000 ppb chlorsulfuron or sulfometuron-methyl. […] Acetoin content was then measured by a modification of the procedure described by Westerfield, J. Biol. Chem. 161:495 (1945). […] Tubes were then centrifuged, and the optical density was read at 530 nm. Background optical densities, which were subtracted from the optical density values of the reactions, were determined for each extract from parallel assays to which the enzyme extract was added after the addition of 6N H2 SO4. Protein concentrations were measured with Bio-Rad Protein Assay reagent with bovine serum albumin as a standard. […]
Responses to chlorsulfuron were determined for ALS activities in extracts of cells suspension cultures derived from nine individuals that differed with resepct to the S4 mutation. […] Callus and plant phenotypes were determined by growth responses of cell cultures and seedlings, respectively, on herbicide-supplemented medium. […]

Salmonella typhimurium = conditions: in the presence of valine; reversed by isoleucine; cited from earlier work
[6] = system: yeast Saccharomyces cerevisiae; conditions: medium supplementation; cited from earlier work

SMILES | Mean Fresh Weight (S4/S4 callus) [g] | Mean Fresh Weight (H1 (parent) callus) [g] | reversal of growth inhibition [1] | Uninhibited activity (%) in the Presence of Chlorsulfuron ([2]; 10 ppb) [%] | Uninhibited activity (%) in the Presence of Chlorsulfuron ([2]; 30 ppb) [%] | Uninhibited activity (%) in the Presence of Chlorsulfuron ([2]; 100 ppb) [%] | Uninhibited activity (%) in the Presence of Chlorsulfuron ([3]; 10 ppb) [%] | Uninhibited activity (%) in the Presence of Chlorsulfuron ([3]; 30 ppb) [%] | Uninhibited activity (%) in the Presence of Chlorsulfuron ([3]; 100 ppb) [%] | Uninhibited activity (%) in the Presence of Chlorsulfuron ([4]; 10 ppb) [%] | Uninhibited activity (%) in the Presence of Chlorsulfuron ([4]; 30 ppb) [%] | Uninhibited activity (%) in the Presence of Chlorsulfuron ([4]; 100 ppb) [%] | remaining ALS activity (% of uninhibited) at 0.01 ppm ([5]; 10 ppb) [%] | remaining ALS activity (% of uninhibited) at 0.03 ppm ([5]; 30 ppb) [%] | remaining ALS activity (% of uninhibited) at 0.1 ppm ([5]; 100 ppb) [%] | growth effect (Salmonella typhimurium) | reversal of growth inhibition [6]
COc1nc(C)nc(NC(=O)NS(=O)(=O)c2ccccc2Cl)n1 [Chlorsulfuron, chlorsulfuron] | 4.42 | 0 | prevented by supplementation of the medium with isoleucine and valine | 60 | 47 | 41 | 89 | 83 | 81 | 59 | 50 | 42 | 36 | 22 | 16 |  | 
COC(=O)c1ccccc1S(=O)(=O)NC(=O)Nc1nc(C)cc(C)n1 [Sulfometuron-methyl, sulfometuron-methyl] |  |  |  |  |  |  |  |  |  |  |  |  |  |  |  | inhibits growth | restored by addition of isoleucine, leucine, and valine

— US4774381A, “Herbicide resistant tobacco” (E. I. Du Pont de Nemours and Company, priority 1985, dated 1988)
